Assays:
Type in all cases: biochemical
[1] = target: T1, rat cathepsin K (Rattus norvegicus, UniProt O35186); assay: cathepsin K inhibition assay, fluorogenic substrate Cbz-Phe-Arg-AMC, progress curve method; settings: Table 2; rat recombinant enzyme, 10 μM substrate; read-out: rCat K Ki
T1 construct: The proform of cathepsin K was converted to mature cathepsin K by brief exposure to pH 4; made in house; host or cells: baculovirus; Trichoplusia ni High Five cells (virus raised in Sf-9)
T1 sequence (O35186 115-329): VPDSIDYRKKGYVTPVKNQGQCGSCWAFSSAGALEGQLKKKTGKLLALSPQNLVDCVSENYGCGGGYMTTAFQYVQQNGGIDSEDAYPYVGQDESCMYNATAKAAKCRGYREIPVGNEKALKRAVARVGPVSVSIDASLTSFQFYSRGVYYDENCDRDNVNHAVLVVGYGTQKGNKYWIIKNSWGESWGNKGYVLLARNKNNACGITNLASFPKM
Procedure: (§1) All assays for cathepsin K were carried out with human and rat recombinant enzyme. Assays for cathepsins S & V were also carried out with human recombinant enzyme. Assays for human cathepsins B, H, and L were carried out with enzyme, purchased from Athens Research and Technology, Inc., prepared from human liver tissue. Standard assay conditions for the determination of kinetic constants used a fluorogenic peptide substrate, typically (5S,8S)-13-amino-5-benzyl-13-imino-3-methylene-N-(4-methyl-2-oxo-2H-chromen-7-yl)-6-oxo-1-phenyl-2-oxa-4,7,12-triazatridecane-8-carboxamide (Cbz-Phe-Arg-AMC), and were determined in 100 mM sodium acetate at pH 5.5 containing 10 mM dithiothreitol and 120 mM sodium chloride. A stock substrate solution of Cbz-Phe-Arg-AMC was prepared at a concentration of 50 mM in dimethyl sulfoxide. This substrate was diluted into the assay for a final substrate concentration of 10 μM in the rat cathepsin K, human cathepsin K, and human cathepsin B assays; a final substrate concentration of 5 μM in the human cathepsin L assay; and a final substrate concentration of 2 μM in the human cathepsin V assay.
All assays contained 10% dimethyl sulfoxide. […] All assays were conducted at 30° C. Product fluorescence (excitation at 360 nm; emission at 440 nm, (except cathepsin H which used excitation at 340 nm; emission at 420 nm)) was monitored with a PerSeptive Biosystems Cytofluor II fluorescence plate reader. Product progress curves were generated over 2.3 h monitoring the formation of 7-amino-4-methylcoumarin product (or β-naphthalamide for cathepsin H). […]
Protein Purification: Media (human and rat) were filtered through a Whatman 3 filter, and then loaded onto a 25 mL Poros HS II (26 mm×47 mm) cation exchange column equilibrated in 25 mM sodium acetate at pH 5.5 (equilibration buffer). The column was washed until the absorbance reached the baseline value, and then the protein was eluted with a linear gradient from 0-2 M sodium chloride in the equilibration buffer. Column fractions were analyzed by SDS-PAGE, N-terminal sequencing, and mass spectrometry. […]

[2] = target: human cathepsin B (Homo sapiens, UniProt P07858); assay: cathepsin B inhibition assay, fluorogenic substrate Cbz-Phe-Arg-AMC; settings: Table 2; enzyme from human liver tissue, 10 μM substrate; read-out: hCat B Ki
Procedure: as §1
(§2) All assays contained 10% dimethyl sulfoxide. […] All assays were conducted at 30° C. Product fluorescence (excitation at 360 nm; emission at 440 nm, (except cathepsin H which used excitation at 340 nm; emission at 420 nm)) was monitored with a PerSeptive Biosystems Cytofluor II fluorescence plate reader. Product progress curves were generated over 2.3 h monitoring the formation of 7-amino-4-methylcoumarin product (or β-naphthalamide for cathepsin H).
(§3) Potential inhibitors were evaluated using the progress curve method. […] For those compounds whose progress curves were linear, the enzymatic activity (RATE) was plotted against the concentration of test compound, including inhibitor concentration of zero ([I]=0), and the IC50 determined from a fit of equation 1 to the data, RATE=Vmax/(1+([I]/IC50)) (1) where Vmax is the best fit estimate of the maximal enzymatic activity. Ki values were calculated from IC50 values using equation 2 assuming a competitive model.

[3] = target: human cathepsin H (Homo sapiens, UniProt P09668); assay: cathepsin H inhibition assay, substrate L-Arg-β-naphthalamide; settings: Table 2; enzyme from human liver tissue, 50 μM substrate; read-out: hCat H Ki
Sequence of human cathepsin H (P09668 116-335 limits assumed, other chains not shown): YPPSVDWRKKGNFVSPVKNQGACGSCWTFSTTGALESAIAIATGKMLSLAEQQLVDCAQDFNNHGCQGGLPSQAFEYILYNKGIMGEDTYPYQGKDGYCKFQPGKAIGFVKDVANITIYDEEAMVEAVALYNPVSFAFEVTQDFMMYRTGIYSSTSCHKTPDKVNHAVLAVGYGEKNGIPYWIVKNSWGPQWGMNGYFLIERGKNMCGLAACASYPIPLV
Procedure: as §1, with “assay. […]” for “assay.”
(§4) All assays contained 10% dimethyl sulfoxide. […] Product fluorescence (excitation at 360 nm; emission at 440 nm, (except cathepsin H which used excitation at 340 nm; emission at 420 nm)) was monitored with a PerSeptive Biosystems Cytofluor II fluorescence plate reader. […]
as §3

[4] = target: human cathepsin L (Homo sapiens, UniProt P07711); assay: cathepsin L inhibition assay, fluorogenic substrate Cbz-Phe-Arg-AMC; settings: Table 2; enzyme from human liver tissue, 5 μM substrate; read-out: hCat L Ki
Sequence of human cathepsin L (P07711 114-288 limits assumed): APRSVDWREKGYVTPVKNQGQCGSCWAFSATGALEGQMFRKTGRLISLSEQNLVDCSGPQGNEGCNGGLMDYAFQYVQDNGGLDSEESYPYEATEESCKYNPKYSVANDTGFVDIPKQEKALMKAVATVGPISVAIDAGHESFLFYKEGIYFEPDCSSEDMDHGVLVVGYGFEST
Sequence of human cathepsin L (P07711 292-333 limits assumed): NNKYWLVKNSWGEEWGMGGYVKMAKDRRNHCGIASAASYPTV
Procedure: as §1, §2, §3

[5] = target: human cathepsin S (Homo sapiens, UniProt P25774); assay: cathepsin S inhibition assay, fluorogenic substrate Cbz-Val-Val-Arg-AMC; settings: Table 2; human recombinant enzyme, 10 μM substrate; read-out: hCat S Ki
Sequence of human cathepsin S (P25774 115-331): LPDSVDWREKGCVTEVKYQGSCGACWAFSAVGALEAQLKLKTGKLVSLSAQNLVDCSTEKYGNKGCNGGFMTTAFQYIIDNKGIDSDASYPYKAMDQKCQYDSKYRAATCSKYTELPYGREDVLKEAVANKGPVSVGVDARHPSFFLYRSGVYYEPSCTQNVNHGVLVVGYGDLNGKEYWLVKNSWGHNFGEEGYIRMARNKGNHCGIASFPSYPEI
Procedure: as §1, with “assay. […]” for “assay.”
as §4, §3

[6] = target: human cathepsin V (Homo sapiens, UniProt O60911); assay: cathepsin V inhibition assay, fluorogenic substrate Cbz-Phe-Arg-AMC; settings: Table 2; human recombinant enzyme, 2 μM substrate; read-out: hCat V Ki
Sequence of human cathepsin V (O60911 114-334): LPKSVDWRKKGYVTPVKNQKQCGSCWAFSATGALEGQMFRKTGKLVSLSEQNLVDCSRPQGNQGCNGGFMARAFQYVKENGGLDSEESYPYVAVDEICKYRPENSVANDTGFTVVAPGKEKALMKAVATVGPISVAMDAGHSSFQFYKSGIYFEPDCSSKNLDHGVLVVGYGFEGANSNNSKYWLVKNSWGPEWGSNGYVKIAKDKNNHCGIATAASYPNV
Procedure: as §1, §2, §3

Ki [1] [nM] | Ki [2] [nM] | Ki [3] [nM] | Ki [4] [nM] | Ki [5] [nM] | Ki [6] [nM] | SMILES
> 1000 | > 1000 | > 1000 | > 1000 | 100 to 1000 | > 1000 | CCCC[C@H](NC(=O)OC1(Cc2ccccc2)CCCC1)C(=O)C(=O)N[C@@H](C)C(=O)OCc1ccccc1 [Example 3, Benzyl (2S)-2-{[(3S)-3-({[(1-benzylcyclopentyl)oxy]carbonyl}amino)-2-oxoheptanoyl]amino}propanoate]
10 to 100 | 100 to 1000 | 100 to 1000 | 10 to 100 | 1 to 10 | 1 to 10 | CCCC[C@H](NC(=O)OCC1(Cc2ccc(F)cc2)CCC1)C(=O)C(=O)Nc1n[nH]c2cc(Cl)ccc12 [Example 15, [1-(4-fluorobenzyl)cyclobutyl]methyl(1S)-1-[[(6-chloro-1H-indazol-3-yl)amino](oxo)acetyl]pentylcarbamate]
10 to 100 | > 1000 | > 1000 | 10 to 100 | 10 to 100 | 10 to 100 | CCCC[C@H](NC(=O)OC1(c2nc3ccccc3s2)CCCC1)C(=O)C(=O)Nc1ccn[nH]1 [Example 17, 1-(1,3-Benzothiazol-2-yl)cyclopentyl(1S)-1-[oxo(1H-pyrazol-3-ylamino)acetyl]pentylcarbamate]

— patent US7282512B2, “Cycloalkyl ketoamides derivatives useful as cathepsin K inhibitors” (SmithKline Beecham Corporation, priority 2002, dated 2007)
